Experimental data reported in PMC2783557 (Brain, behavior, and immunity, 2009).

Assays:
Tg2576 mice = details: chronic treatment from 8-15 months of age, ref Sheng et al., 2003; cited from earlier work
Male CD-1 mice = experiment: Brain uptake; type: in vivo, mouse; details: indomethacin 20 mg/kg ip 30 min before LPS 3 mg/kg; n = 6-8/group

## COc1ccc2c(c1)c(CC(=O)O)c(C)n2C(=O)c1ccc(Cl)cc1 [Indomethacin]
Tg2576 mice
  levels of soluble Aβ40 and Aβ42 in the hippocampus and cortex: significantly reduce
Male CD-1 mice
  effect of LPS on brain uptake (influx) of I-Aβ: did not reverse
